TGI and GI50 data for eleven compounds are collected here from PubChem BioAssay (NCI).

Among the test systems are CAKI-1 renal; EKVX NSCLC; HCC-2998 colon; HL-60(TB) leukemia; MALME-3M melanoma; NCI-H460 lung; OVCAR-5 ovarian; SK-OV-3 ovarian; SNB-19 CNS; HS 578T breast.
Assay in all cases: inhibition of tumour cell growth, NCI panel, 48 h

Where “and” joins values, the source holds several entries; their conditions need not be identical. Equal entries are not always repeated.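 A five-concentration, 48-hour dose response in 96-well plates underlies each endpoint, interpolated linearly between surrounding concentrations. GI50 = concentration required for 50% inhibition of growth. TGI: total growth inhibition.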

Regarding `CC1(C)CC23C4COC(=O)C2CCC1C3CC4=O` (stereo not given), the TGI was 43 µM with CAKI-1 renal; 83.8 µM with EKVX NSCLC; 37.2 µM in the assay with HCC-2998 colon; 12.6 µM with HL-60(TB) leukemia; 23.3 µM in the assay with MALME-3M melanoma; 29.8 µM with NCI-H460 lung. For the same compound, the results for the TGI in the assay on OVCAR-5 ovarian, with SK-OV-3 ovarian and with SNB-19 CNS were 72.4 µM, 104 µM and 81.2 µM, respectively.
For the compound `COC1=C2CC(C)CC(OC)C(O)C(C)/C=C(\C)C(OC(N)=O)C(OC)/C=C\C=C(/C)C(=O)NC(=C(C=NC(C)(C)C)C1=O)C2=O` (stereo not given), the TGI in the assay on CAKI-1 renal turned out to be 23.7 µM; in the assay on EKVX NSCLC, 26 µM; with HCC-2998 colon it was 16.6 µM; with HL-60(TB) leukemia it was 1.86 µM; in the assay on MALME-3M melanoma, 5.23 µM; in the assay with NCI-H460 lung, 18.4 µM. Besides, the TGI is 74.1 µM in the assay on OVCAR-5 ovarian, 67.3 µM with SK-OV-3 ovarian and 26.9 µM with SNB-19 CNS.
As for `CC[C@]1(O)C[C@H]2CN(CCc3c([nH]c4ccccc34)[C@@](C(=O)OC)(c3cc4c(cc3OC)N(C=O)[C@H]3[C@@](O)(C(=O)OC)[C@H](OC(C)=O)[C@]5(CC)C=CCN6CC[C@]43[C@@H]65)C2)C1`, the GI50 with CAKI-1 renal is 1.95 µM; with NCI-H460 lung, less than 0.001 µM. Further, the TGI with CAKI-1 renal is 9.22 µM and 10.8 µM and 77.2 µM; in the assay with MALME-3M melanoma, 6.23 µM and 32 µM and 58.1 µM; in the assay with NCI-H460 lung it was 0.775 µM and 2.35 µM; in the assay with SNB-19 CNS it was 43.1 µM and 17.7 µM.
With `COc1cc2c(cc1OC)-c1cc3ccccc3c[n+]1CC2`, the TGI in the assay with CAKI-1 renal is more than 100 µM; in the assay on EKVX NSCLC, more than 100 µM; in the assay on HCC-2998 colon, more than 100 µM; in the assay on HS 578T breast it was 94.7 µM; in the assay with MALME-3M melanoma, 54.3 µM; in the assay with NCI-H460 lung, more than 100 µM. For the same compound, the TGI in the assay on OVCAR-5 ovarian, in the assay on SK-OV-3 ovarian and with SNB-19 CNS was more than 100 µM in each case.
As to `O=C1OC(c2ccccc2)=N/C1=C\c1cccnc1`, the TGI with EKVX NSCLC, in the assay with HCC-2998 colon, with HL-60(TB) leukemia, with HS 578T breast, with NCI-H460 lung and with OVCAR-5 ovarian was more than 100 µM in each case. Further, the TGI in the assay on SK-OV-3 ovarian and in the assay on SNB-19 CNS was more than 100 µM in each case.
For `CCS(=O)(=O)N1CCC(C(C)n2c(C)c(C(=O)NCc3c(OC)cc(C)[nH]c3=O)c3ccccc32)CC1` (stereo not given), the GI50 in the assay with CAKI-1 renal, in the assay with EKVX NSCLC, in the assay with HCC-2998 colon, in the assay with HS 578T breast, in the assay with NCI-H460 lung and in the assay on OVCAR-5 ovarian was more than 100 µM each time. Besides, the GI50 in the assay with SK-OV-3 ovarian is more than 100 µM. Moreover, the TGI with CAKI-1 renal, with EKVX NSCLC, in the assay on HCC-2998 colon, in the assay on HS 578T breast, in the assay with NCI-H460 lung and in the assay with OVCAR-5 ovarian was more than 100 µM in each case. Also, the TGI with SK-OV-3 ovarian was more than 100 µM.
On to `N/C(=N\N=C/c1ccccc1O)NO`, for which the TGI was 24 µM in the assay on CAKI-1 renal; 71.4 µM in the assay with EKVX NSCLC; 25.6 µM in the assay on HCC-2998 colon; more than 36 µM in the assay with HL-60(TB) leukemia; more than 84.1 µM with MALME-3M melanoma; more than 43.7 µM in the assay with NCI-H460 lung. In addition, the TGI with OVCAR-5 ovarian was more than 100 µM; in the assay on SK-OV-3 ovarian, more than 87.1 µM; in the assay on SNB-19 CNS, more than 91.3 µM.
As to `Fc1ccc2[nH]cc(-c3nc(-c4c[nH]c5ncccc45)cs3)c2c1`, the GI50 with EKVX NSCLC was 3.34 µM; with HCC-2998 colon, more than 100 µM; in the assay on HS 578T breast, 3.15 µM; in the assay on NCI-H460 lung it was 2.11 µM; in the assay on OVCAR-5 ovarian, more than 100 µM. For the same compound, the TGI in the assay on EKVX NSCLC, in the assay on HCC-2998 colon, with HS 578T breast, in the assay on NCI-H460 lung and in the assay with OVCAR-5 ovarian was more than 100 µM in each case.
For `CS(=O)(=O)c1ccc(/C=N/NC(N)=S)cc1`, the TGI in the assay on CAKI-1 renal, with EKVX NSCLC, in the assay with HCC-2998 colon, in the assay on HL-60(TB) leukemia, in the assay on HS 578T breast and in the assay with MALME-3M melanoma was more than 100 µM throughout. Also, the TGI in the assay with NCI-H460 lung, in the assay with OVCAR-5 ovarian, in the assay with SK-OV-3 ovarian and with SNB-19 CNS was more than 100 µM in each case.
`O=C1OC[C@@H]2[C@@H](O)CCCCCN12`: the TGI in the assay on CAKI-1 renal, in the assay on EKVX NSCLC, in the assay on HCC-2998 colon, in the assay with HL-60(TB) leukemia, in the assay on HS 578T breast and with NCI-H460 lung was more than 100 µM throughout. In addition, the TGI in the assay with OVCAR-5 ovarian, in the assay on SK-OV-3 ovarian and in the assay with SNB-19 CNS was more than 100 µM in each case.
For the compound `O=C(Nc1cccc(-n2ccc3c(NC(=O)c4ccccc4)nccc32)c1)c1ccc(N2CCOCC2)c(C(F)(F)F)c1`, the GI50 with CAKI-1 renal is 0.0462 µM; in the assay with EKVX NSCLC it was 0.212 µM; in the assay with HCC-2998 colon, 0.0614 µM; in the assay on HL-60(TB) leukemia, 0.0393 µM; with HS 578T breast it was 0.272 µM; with NCI-H460 lung it was 0.037 µM. Moreover, the GI50 with OVCAR-5 ovarian is 0.188 µM; with SK-OV-3 ovarian, 0.0326 µM; in the assay on SNB-19 CNS it was 0.058 µM. Also, the TGI was 14.8 µM in the assay with CAKI-1 renal; more than 100 µM in the assay on EKVX NSCLC; 4.82 µM in the assay on HL-60(TB) leukemia; 98.6 µM in the assay with HS 578T breast; 26.9 µM in the assay on NCI-H460 lung; more than 100 µM with OVCAR-5 ovarian. Also, the TGI in the assay with SK-OV-3 ovarian was 2.66 µM; with SNB-19 CNS, more than 100 µM.
